Results taken from patent US20100261739A1, “Method of Treating Non-Small Cell Lung Cancer” (Myriad Pharmaceuticals, Inc., priority 2007, published 2010).
Where a name gives a salt, the structure may show the parent alone.

System: Subjects with Refractory Solid Tumors
Experiment: Phase I clinical trial, open-label, dose-escalating, multiple-dose, weekly intravenous administration
Format: in vivo, human
Method: An open-label, dose-escalating, multiple-dose study to define the safety, tolerability and phamacokinetics of weekly intravenous administration of (4-Methoxy-phenyl)-methyl-(2-methyl-quinazolin-4-yl)-amine hydrochloride was performed. A dosing schedule (each 4 week cycle) was performed for (4-Methoxy-phenyl)-methyl-(2-methyl-quinazolin-4-yl)-amine hydrochloride weekly for 3 weeks with no infusion on the fourth week of each cycle. Subjects with refractory solid tumors were enrolled. During Cycle 1, subjects were hospitalized during each infusion of (4-Methoxy-phenyl)-methyl-(2-methyl-quinazolin-4-yl)-amine hydrochloride and remained for observation and safety evaluation for approximately 24 hours following the end of the infusion. All subject had continuous telemetry for 2 hours prior to infusion, for 1-2 hour infusion and for 3 hours after the end of the infusion. Any clinically significant electrocardiographic (ECG) wave form abnormality was recorded and prolongation of the monitoring period extended at the discretion of the principal investigator.
Electrocardiograms were obtrained prior to starting the infusion and within 30 minutes of the end of infusion for each infusino of the first cycle. Electrocardiograms on Day 1 were obtained in triplicate 5 minutes apart.
Neurocognitive assessments were made by administration of the Mini-Mental State Examination (MMSE), the Hopkins Verbal Learning and timed Grooved Pegboard tests before administration of the intravenous infusion and approximately 24 hours after the infusion at each weekly administration of the first cycle.
On days 1, 8, and 15 of each cycle, vital signs were obtained prior to the first dose, at 15, 30, and 60 minutes after the initiation of the infusion, and at 0.5, 1, 1.5, 2, and 4 hours after the end of the intravenous infusion. Vital signs at all time points beyond the start of the intravenous infusion included heart rate, blood pressure and respirations. Temperature was measured at the end of the infusion and 4 hours later.
Individual subjects were allowed to continue on repeated weekly ×3 administrations every 28 days with no dose increase provided there was no unacceptable toxicity or disease progression.
Tumor response was evaluated by response evaluation criteria in solid tumors
(RECIST) criteria. To prevent sever hypersensitivity reactions due to Cremophor® EL, subjects were premedicated with oral dexamethasone (20 mg) administered approximately 12 and 6 hours before the intravenous infusion with (4-Methoxy-phenyl)-methyl-(2-methyl-quinazolin-4-yl)-amine hydrochloride, diphenhydramine (50 mg) or its equivalent administered intravenously 30-60 minutes before (4-Methoxy-phenyl)-methyl-(2-methyl-quinazolin-4-yl)-amine hydrochloride, and cimetidine (300 mg) or ranitidine (50 mg) administered intravenously 30-60 minutes before (4-Methoxy-phenyl)-methyl-(2-methyl-quinazolin-4-yl)-amine hydrochloride.

[1] = at the administered doses (0.3-4.5 mg/m^2), weekly i.v.

SMILES: COc1ccc(N(C)c2nc(C)nc3ccccc23)cc1 [(4-Methoxy-phenyl)-methyl-(2-methyl-quinazolin-4-yl)-amine hydrochloride]
- cytotoxicity peripherally [1]: no evidence from the results of the clinical trials of cytotoxicity peripherally
- effect on laboratory parameters (neutrophils, platelets, hemoglobin) [1]: no apparent effect
- safety and tolerability (human subjects at selected dosages, summary of Phase 1 studies): safe and well tolerated
- disease progression (tumor response by RECIST criteria) (one patient in Cohort 10 (3.3 mg/m^2) with NSCLC that had metastasized to the CNS, weekly i.v. for 3 weeks of each 4 week cycle): not shown to have disease progression
- dose limiting toxicity (particularly in Cohorts 8 and 9 (3.9 and 4.5 mg/m^2)): vascular in nature, manifested by an acute coronary syndrome
- intratumor bleeding (weekly i.v., human subjects): incidences of intratumor bleeding
- optimal dosage derived from the trials (weekly i.v., hydrochloride salt basis): ≤ 3.3 mg/m^2
- safety and tolerability (within dosage range 3.3 mg/m^2 or lower): safe and tolerated
